Measured values as given in patent US6559125B1, “Polyamide-alkylator conjugates and related products and method” (priority 2000, dated 2003).

Experiments:
[1] = water, pH 7.5, 37° C.; cited from earlier work
[2] = biological target: DNA; settings: from previous reports; cited from earlier work
[3] = system: match binding sites (5′-WGCWGCW-3′) on a 241 bp restriction fragment derived from the HIV-1 promoter region; assay: Quantitative DNase I footprint titration; settings: for equilibrium association constant Ka: 22° C., pH 7.0
Protocol: Jones, K. A. & Peterlin, B. M. (1994), Annual Review of Biochemistry 63, 717-743. Left, storage phosphor autodiograms of 8% denaturing polyacrylamide gels used to separate the fragments generated by DNase I digestion. All reactions contained 20,000 cpm restriction fragment, 10 mM Tris.HCl (pH 7.0), 10 mM KCl, 10 MM MgCl2 and 5 mM CaCl and were performed at 22° C. Lane 1, intact DNA; lane 2, A-specific reaction; lane 3, G-specific reaction; lane 4, DNase I standard; lanes 5-17, 1 pM, 2 pM, 5 pM, 10 pM, 20 pM, 50 pM, 100 pM, 200 pM, 500 pM, 1 nM, 2 nM, 5 nM, 10 nM, respectively. The 5′-AGCTGCT-3′ (A), 5′-TGCAGCA-3′ (B), and 5′-TGCTGCT-3′ (E) match sites are shown in boxes on the right side of the autoradiogram (SEQ ID NO:4).
FIG. 5(b) depicts data from quantitative DNase I footprint titration experiments for ImPy-β-ImPy-(R)^CHL(OH)γ-ImPy-βImPy-β-Dp (3) binding to the 5′-AGCTGCT-3′ (A) and 5′-TGCAGCA-3′ sites (B). θnorm points were obtained using storage phosphor autoradiography and processed as described in the experimental section The data for the binding of 3 to 5′-AGCTGCT-3′ is indicated by red circles and binding to 5′-TGCAGCA-3′ by blue circles. The solid curves are best-fit Langmuir binding titration isotherms obtained from a nonlinear least-squares algorithm eq 2 (n=1).
All reactions were executed in a total volume of 400 μl. […]
Data from the footprint titration gels were obtained using a Molecular Dynamics 400S PhosphorImager followed by quantitation using ImageQuant software (Molecular Dynamics). […] The apparent fractional occupancy (θapp) of the sites were calculated using the equation: [formula] […]
where [L]tot is the total polyamide concentration, Ka is the equilibrium association constant, and θmin and θmax are the experimentally determined site saturation values when the site is unoccupied or saturated, respectively. […]

[4] = system: match binding sites (5′-WGCWGCW-3′) on a 241 bp restriction fragment derived from the HIV-1 promoter region; settings: sequence 5′-WGCWGCW-3′ in the HIV promoter; literature value; cited from earlier work
[5] = system: HIV; settings: cell culture; cited from earlier work

## O=C(O)CCCc1ccc(N(CCCl)CCCl)cc1 [chlorambucil, 4-[bis(2-chloroethyl)amino]benzene butanoic acid]
[1]
  half life for hydrolysis of the bis(dichloroethylamino)benzene moiety: approximately 1.3 hours

## ImImPyPy-(R)^H^2^Nγ-ImPyPyPy-β-Dp [polyamide 1′]
[2]
  binding affinity: subnanomolar

## ImPy-β-ImPy-(R)^CHL(OH)γ-ImPy-β-ImPy-β-Dp [compound 3]
[3]; match site 5′-AGCTGCT-3′
  equilibrium association constant Ka: 1.6±0.7×10^10 M^−1
[3]; match site 5′-TGCAGCA-3′
  equilibrium association constant Ka: 1.3±0.7×10^10 M^−1
[3]; mismatch sites 5′-TGTCGCC-3′ and 5′-AGCAGCTC-3′
  affinities for double base pair mismatch sites, fold lower than for the match sites: > 100 fold

## ImPy-β-ImPy-γ-ImPy-β-ImPy-β-Dp [polyamide 1]
[4]
  binding affinity Ka of unsubstituted polyamide: 2e+10 M⁻¹
[5]
  inhibition of HIV replication: inhbit HIV replication
